We go through 3 compounds from ChEMBL document CHEMBL1240367, “Therapy of murine pulmonary aspergillosis with antibody-alliinase conjugates and alliin” (2010).

Holding throughout (type): functional
Test [1] deals with Aspergillus fumigatus. In words: Antifungal activity against swollen Aspergillus fumigatus.
For test [2], the system named is Aspergillus fumigatus. In words: Antifungal activity against resting Aspergillus fumigatus.
In test [3] the test system is Aspergillus fumigatus. In words: Antifungal activity against Aspergillus fumigatus hyphae.
Test [4] relates to Aspergillus fumigatus. The test can be described thus: Antifungal activity against Aspergillus fumigatus infected ICR mouse assessed as median survival time at 1 mg/kg, it administered 1 hr post infection repeated on days 4, 6 and 9. The note with it: route endotracheal.
Test [5] concerns Aspergillus fumigatus. In words: Antifungal activity against Aspergillus fumigatus infected ICR mouse assessed as median survival time at 750 ug, it administered 1 hr post infection repeated on days 4, 6 and 9.

Values after ≈ are worked out from the molar mass of the structure shown.

With `C=CCS[S+]([O-])CC=C` (stereo not given) [ALLICIN], the MFC is 7.5 µg/mL (≈ 46.2 µM) against Aspergillus fumigatus [1] and 15 µg/mL (≈ 92.4 µM) in the test with Aspergillus fumigatus [2]. The compound further gave an MIC in the test with Aspergillus fumigatus [3] of 30 µg/mL (≈ 185 µM).

For the compound `C[C@@H]1[C@H](O)[C@@H](C)/C=C/C=C/C=C/C=C/C=C/C=C/C=C/[C@H](O[C@@H]2O[C@H](C)[C@@H](O)[C@H](N)[C@@H]2O)C[C@@H]2O[C@](O)(C[C@@H](O)C[C@@H](O)[C@H](O)CC[C@@H](O)C[C@@H](O)CC(=O)O[C@H]1C)C[C@H](O)[C@H]2C(=O)O` [AMPHOTERICIN B], the MST in the test with Aspergillus fumigatus [4] was 18 days.

Consider `C=CC[S+]([O-])C[C@H](N)C(=O)O` (stereo not given in full) [ALLIIN], for which the MST in the test on Aspergillus fumigatus [5] was determined as 7 days.
